From US7834194B2, “Cycloalkyl lactam derivatives as inhibitors of 11-beta-hydroxysteroid dehydrogenase 1” (Eli Lilly and Company, priority 2004, dated 2010)

Molecular target: recombinant human 11β-HSD type 1 enzyme (Homo sapiens, UniProt P28845)
Assay: 11β-HSD type 1 enzyme assay (NADPH production by fluorescence)
Type: biochemical
Conditions: three hour incubation at room temperature
Experimental: 11β-HSD Type 1 Enzyme Assay
Human 11β-HSD type 1 activity is measured by assaying NADPH production by fluorescence assay. Solid compounds are dissolved in DMSO to a concentration of 10 mM. Twenty microliters of each are then transferred to a column of a 96-well polypropylene Nunc plate where they are further diluted 50-fold followed by subsequent two-fold titration, ten times across the plate with additional DMSO using a Tecan Genesis 200 automated system. Plates are then transferred to a Tecan Freedom 200 system with an attached Tecan Temo 96-well head and an Ultra 384 plate reader. Reagents are supplied in 96-well polypropylene Nunc plates and are dispensed individually into black 96-well Molecular Devices High Efficiency assay plates (40 μL/well capacity) in the following fashion: 9 μL/well of substrate (2.22 mM NADP, 55.5 μM Cortisol, 10 mM Tris, 0.25% Prionex, 0.1% Triton X100), 3 μL/well of water to compound wells or 3 μL to control and standard wells, 6 μL/well recombinant human 11β-HSD type 1 enzyme, 2 μL/well of compound dilutions. For ultimate calculation of percent inhibition, a series of wells are added that represent assay minimum and maximum: one set containing substrate with 667 μM carbenoxolone (background), and another set containing substrate and enzyme without compound (maximum signal). Final DMSO concentration is 0.5% for all compounds, controls and standards. Plates are then placed on a shaker by the robotic arm of the Tecan for 15 seconds before being covered and stacked for a three hour incubation period at room temperature. Upon completion of this incubation, the Tecan robotic arm removes each plate individually from the stacker and places them in position for addition of 5 μL/well of a 250 μM carbenoxolone solution to stop the enzymatic reaction. Plates are then shaken once more for 15 seconds then placed into an Ultra 384 microplate reader (355EX/460EM) for detection of NADPH fluorescence.

Chain of recombinant human 11β-HSD type 1 enzyme (P28845 whole entry): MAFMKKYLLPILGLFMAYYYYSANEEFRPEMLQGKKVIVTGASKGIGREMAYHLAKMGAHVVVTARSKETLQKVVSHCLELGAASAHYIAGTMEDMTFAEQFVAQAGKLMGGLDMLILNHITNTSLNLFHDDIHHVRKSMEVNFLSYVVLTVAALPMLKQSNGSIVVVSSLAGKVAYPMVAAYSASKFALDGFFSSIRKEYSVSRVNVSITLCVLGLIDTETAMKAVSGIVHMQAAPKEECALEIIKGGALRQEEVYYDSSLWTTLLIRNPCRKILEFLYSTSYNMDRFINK

Compound: O=C1C(Cc2sc3cc4c(cc3c2Cl)OCO4)CCN1C1CCCCC1 (stereo not shown)
- IC50: 162 nM

Compound: O=C1C(Cc2sc3ccccc3c2Cl)CCCN1C1CCC(O)CC1 (stereo not shown)
- IC50: 276 nM

Compound: COc1ccc2c(Cl)c(CC3CCN(C4CCCCC4)C3=O)sc2c1 (stereo not shown)
- IC50: 508 nM

Compound: O=C1C(Cc2cc3ccccc3o2)CCN1C1CCCCC1 (stereo not shown)
- IC50: 682 nM

Compound: O=C1C(Cc2cc3ccccc3s2)CCN1C1CCCCC1 (stereo not shown)
- IC50: 190 nM

Compound: O=C1C(Cc2cc3cc(-c4ccnc(F)c4)ccc3s2)CCN1C1CCCCC1 (stereo not shown)
- IC50: 257 nM

Compound: O=C(O)c1ccc(-c2ccc3sc(CC4CCN(C5CCCCC5)C4=O)cc3c2)cc1 (stereo not shown)
- IC50: 427 nM
